Source: ChEMBL document CHEMBL4043292, “Discovery and Optimization of Phosphopantetheine Adenylyltransferase Inhibitors with Gram-Negative Antibacterial Activity” (J Med Chem, 2018)
≈ marks a conversion by molar mass, not a printed value.

Legend:
[1] = Inhibition of PPAT in tolC deficient Escherichia coli JW5503-1 assessed as reduction in level of CoA-SH metabolite by mass spectrometric method
[2] = Inhibition of PPAT in Escherichia coli BW25113 assessed as reduction in level of CoA-SH metabolite by mass spectrometric method
Escherichia coli [3] = experiment: Ratio of IC50 for PPAT in Escherichia coli BW25113 assessed as reduction in level of CoA-SH metabolite to IC50 for PPAT in tolC deficient Escherichia coli JW5503-1 assessed as reduction in level of CoA-SH metabolite
Escherichia coli [4] = experiment: microbe, parasite or virus in culture; conditions: JW5503-1, 20 h
Description: Antibacterial activity against tolC deficient Escherichia coli JW5503-1 after 20 hrs by broth microdilution method

Escherichia coli [5] = experiment: microbe, parasite or virus in culture; conditions: BW25113, 20 h
Description: Antibacterial activity against Escherichia coli BW25113 after 20 hrs by broth microdilution method

physchem [6] = conditions: buffer, pH 7.4
Description: Lipophilicity, log D of the compound at pH 7.4

physchem [7] = conditions: PBS
Description: Solubility of the compound in PBS

[8] = molecular target: T1, Bifunctional coenzyme A synthase (Homo sapiens) (UniProt Q13057)
T1 sequence (whole entry): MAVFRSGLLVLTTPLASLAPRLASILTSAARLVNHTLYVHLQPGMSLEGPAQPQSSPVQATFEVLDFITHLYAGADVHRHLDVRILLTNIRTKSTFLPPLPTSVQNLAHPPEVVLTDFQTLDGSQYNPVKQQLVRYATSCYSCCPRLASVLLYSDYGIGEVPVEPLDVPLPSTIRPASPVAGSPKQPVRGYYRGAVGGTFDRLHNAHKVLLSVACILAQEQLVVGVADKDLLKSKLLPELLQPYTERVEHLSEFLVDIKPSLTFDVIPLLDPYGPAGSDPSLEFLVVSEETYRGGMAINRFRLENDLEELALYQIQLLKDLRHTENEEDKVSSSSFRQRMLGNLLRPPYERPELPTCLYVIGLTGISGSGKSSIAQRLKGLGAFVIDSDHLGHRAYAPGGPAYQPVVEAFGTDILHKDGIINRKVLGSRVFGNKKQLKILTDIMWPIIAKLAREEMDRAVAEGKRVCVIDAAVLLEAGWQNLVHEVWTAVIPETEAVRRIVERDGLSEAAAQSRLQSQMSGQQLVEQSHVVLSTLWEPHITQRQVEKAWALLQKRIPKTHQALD
Description: Inhibition of human coaSY expressed in tolC deficient Escherichia coli JWK0002 assessed as bacterial growth inhibition after 20 hrs by broth microdilution method

in vitro = conditions: human, not told
Description: Efflux ratio in human microsomes

Escherichia coli [9] = experiment: microbe, parasite or virus in culture; conditions: JW0451-2, 20 h
Description: Antibacterial activity against acrB deficient Escherichia coli JW0451-2 after 20 hrs by broth microdilution method

Escherichia coli [10] = experiment: microbe, parasite or virus in culture; conditions: RFM795, 20 h
Description: Antibacterial activity Escherichia coli RFM795 harboring frame deletion of 23 amino acids in lptD gene after 20 hrs by broth microdilution method

Pseudomonas aeruginosa [11] = experiment: microbe, parasite or virus in culture; conditions: PAO1, 20 h
Description: Antibacterial activity against Pseudomonas aeruginosa PAO1 after 20 hrs by broth microdilution method

Pseudomonas aeruginosa [12] = experiment: microbe, parasite or virus in culture; conditions: ATCC 35151, 20 h
Description: Antibacterial activity against Pseudomonas aeruginosa ATCC 35151 after 20 hrs by broth microdilution method

Pseudomonas aeruginosa [13] = experiment: microbe, parasite or virus in culture; conditions: K1119, 20 h
Description: Antibacterial activity against mexAB deficient Pseudomonas aeruginosa K1119 after 20 hrs by broth microdilution method

Row | SMILES | MIC (Escherichia coli [4]) | MIC (Escherichia coli [5]) | logD (physchem [6]) | further results
1 | Cc1ccc2[nH]c(N[C@H](CC#N)c3cccc(Cl)c3)nc2n1 | 4 µg/mL (≈ 12.8 µM) | > 128 µg/mL | – | IC50 [1]: 370 nM; IC50 [2]: 4760 nM; Ratio IC50 (Escherichia coli [3]): 13
2 | CC(=O)N1CCc2cc(Nc3cc(C)nc4nc(N[C@H](CC#N)c5cccc(Cl)c5)nn34)ccc21 | 0.06 µg/mL (≈ 0.123 µM) | > 128 µg/mL | 3.9 | IC50 [1]: < 6 nM; IC50 [2]: 2400 nM; solubility (physchem [7]): < 0.6 µg/mL
3 | COC(=O)N1CCC(Oc2cccc([C@@H](CC#N)Nc3nc4nc(C)cc(N5CCN(C)CC5)c4[nH]3)c2)CC1 | 4 µg/mL (≈ 7.51 µM) | > 128 µg/mL | – | MIC [8]: > 128 µg/mL; efflux ratio (in vitro): 0.56; MIC (Escherichia coli [9]): 64 µg/mL (≈ 120 µM); MIC (Escherichia coli [10]): 64 µg/mL (≈ 120 µM); MIC (Pseudomonas aeruginosa [11]): > 128 µg/mL; MIC (Pseudomonas aeruginosa [12]): > 128 µg/mL; MIC (Pseudomonas aeruginosa [13]): > 128 µg/mL
4 | Cc1cc(NC[C@@H](N)c2cccs2)n2nc(N[C@H](CC#N)c3cccc(Cl)c3)nc2n1 | 0.25 µg/mL (≈ 0.552 µM) | 64 µg/mL (≈ 141 µM) | 3.3 | –
5 | Cc1cc(NCCc2c(C)n[nH]c2C)n2nc(N[C@H](C)c3cccc(Cl)c3)nc2n1 | 2 µg/mL (≈ 4.71 µM) | > 128 µg/mL | 2.9 | –
6 | Cc1cc(NCCc2c(C)n[nH]c2C)n2nc(N[C@H](CC#N)c3cccc(Cl)c3)nc2n1 | 0.5 µg/mL (≈ 1.11 µM) | > 128 µg/mL | 3.8 | IC50 [1]: 12 nM; IC50 [2]: 74000 nM; solubility (physchem [7]): 23.8 µg/mL (≈ 52.9 µM)
7 | Cc1cc(NC[C@@H](N)c2nccn2C)n2nc(N[C@H](CC#N)c3cccc(Cl)c3)nc2n1 | 4 µg/mL (≈ 8.87 µM) | > 128 µg/mL | – | –
8 | Cc1cc(NC[C@@H](O)c2ccccc2)n2nc(N[C@H](CC#N)c3cccc(Cl)c3)nc2n1 | 0.25 µg/mL (≈ 0.558 µM) | > 128 µg/mL | 3.6 | –
9 | COC(=O)N1CCC(CCC#N)(Cc2cccc([C@@H](CC#N)Nc3nc4nc(C)ccc4[nH]3)c2)CC1 | 0.5 µg/mL (≈ 1.03 µM) | > 128 µg/mL | – | –
10 | Cc1cc(=O)n2nc(N[C@H](CC#N)c3cccc(Cl)c3)nc2[nH]1 | 16 µg/mL (≈ 48.7 µM) | > 128 µg/mL | – | IC50 [1]: 590 nM; IC50 [2]: > 200000 nM
11 | CC(=O)N1CCc2cc(Nc3cc(C)nc4nc(N[C@H](C)c5cccc(Cl)c5)nn34)ccc21 | 0.125 µg/mL (≈ 0.271 µM) | > 128 µg/mL | 4.6 | –
12 | Cc1cc(NCCc2ccccc2)n2nc(N[C@H](C)c3cccc(Cl)c3)nc2n1 | 4 µg/mL (≈ 9.83 µM) | > 128 µg/mL | > 4.8 | –
13 | Cc1cc(NC[C@@H](N)c2ccsc2)n2nc(N[C@H](CC#N)c3cccc(Cl)c3)nc2n1 | 1 µg/mL (≈ 2.21 µM) | 64 µg/mL (≈ 141 µM) | 3 | –
14 | COC(=O)N1CC[C@@H](Oc2cccc([C@@H](CC#N)Nc3nc4nc(C)ccc4[nH]3)c2)C1 | > 128 µg/mL | > 128 µg/mL | 2.8 | –
15 | Cc1cc(N2CC(N(C)C)C2)n2nc(N[C@H](C)c3cccc(Cl)c3)nc2n1 | > 128 µg/mL | > 128 µg/mL | – | –
16 | COC(=O)N1CC[C@H](Oc2cccc([C@@H](CC#N)Nc3nc4nc(C)ccc4[nH]3)c2)C1 | 4 µg/mL (≈ 9.51 µM) | > 128 µg/mL | 2.7 | –
17 | COC(=O)N1CCC(Oc2cccc([C@@H](CC#N)Nc3nc4[nH]c(C)cc(=O)n4n3)c2)CC1 | 8 µg/mL (≈ 17.7 µM) | > 128 µg/mL | 0.64 | IC50 [1]: 450 nM; IC50 [2]: > 200000 nM
18 | COC(=O)N1CC[C@@H](Cc2cccc([C@@H](CC#N)Nc3nc4nc(C)ccc4[nH]3)c2)C1 | 1 µg/mL (≈ 2.39 µM) | > 128 µg/mL | 3.1 | –
19 | Cc1cc(NC[C@@H](N)c2ccncc2)n2nc(N[C@H](CC#N)c3cccc(Cl)c3)nc2n1 | 4 µg/mL (≈ 8.93 µM) | > 128 µg/mL | 2.2 | –
20 | Cc1cc(N[C@H]2C[C@@H]2c2ccccc2)n2nc(N[C@H](C)c3cccc(Cl)c3)nc2n1 | 2 µg/mL (≈ 4.77 µM) | > 128 µg/mL | 4.9 | –
21 | Cc1cc(NC[C@H](N)c2ccccc2)n2nc(N[C@H](CC#N)c3cccc(Cl)c3)nc2n1 | 8 µg/mL (≈ 17.9 µM) | > 128 µg/mL | 3.2 | –
22 | Cc1cc(N2CC(N(C)C)C2)n2nc(N[C@H](CC#N)c3cccc(Cl)c3)nc2n1 | 4 µg/mL (≈ 9.73 µM) | > 128 µg/mL | 2.8 | –
23 | COC(=O)N1CCN(Cc2cccc([C@@H](CC#N)Nc3nc4nc(C)ccc4[nH]3)c2)C(=O)C1 | – | – | 1.4 | –
24 | Cc1cc(=O)n2nc(N[C@H](C)c3cccc(Cl)c3)nc2[nH]1 | > 128 µg/mL | – | – | –
25 | Cc1cc(NC[C@@H](N)c2ccccc2F)n2nc(N[C@H](CC#N)c3cccc(Cl)c3)nc2n1 | 0.125 µg/mL (≈ 0.269 µM) | 64 µg/mL (≈ 138 µM) | 3.2 | –
